What all share (assay): NCI-60 cell line screen, 48 h
For test [1], the system named is SR.
In test [2] the test system is OVCAR-3.
Test [3] has as its system SF-295.
The test system of test [4] is OVCAR-5.
Test [5] concerns HT-29.
In test [6] the test system is ACHN.
Test [7] relates to LOX IMVI.
The test system of test [8] is MCF7.
Test [9] deals with MDA-N.
Test [10] relates to SF-539.
Test [11] concerns M14.
Test [12] has as its system CCRF-CEM.
For test [13], the system named is SN12C.
Test [14] deals with PC-3.
The subject of test [15] is UO-31.
Test [16] deals with CAKI-1.
In test [17] the test system is SK-MEL-2.
The test system of test [18] is SK-MEL-5.
Test [19] relates to OVCAR-8.

The structures appear in SMILES notation.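 Five concentrations, 48 hours, 96-well plates. Here, GI50 denotes the concentration required for 50% inhibition of growth.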 Activity calls are given as the source filed them. Rule as the data show it: active = GI50 up to about 1.1 µM and inactive = higher. A value given as a limit tells only on which side of the number the result lay.

For the compound `Nc1nc(Cl)cc(NCC2(CO)CCC(O)C2)n1` (stereo not given), the GI50 in [1], in test [2], in test [3], in test [4], in test [5] and in [6] was > 100 µM (inactive) in each case. The GI50 in [7], in [8], in test [9], in [10], in test [11] and in test [12] was > 100 µM (inactive) throughout. Also, the GI50 in [13], in [14], in test [15], in test [16], in test [17] and in test [18] was > 100 µM (inactive) each time. The GI50 in test [19] is > 100 µM (inactive).
Regarding `Cc1cccc(/N=N/c2c(C)nn(C(=O)CC(=O)Nc3ccccc3)c2C)c1`, the GI50 in test [1], in [2], in test [3], in test [4], in test [5] and in [6] was > 100 µM (inactive) each time. Moreover, the GI50 in test [7], in test [8], in test [9], in test [10], in [11] and in [12] was > 100 µM (inactive) throughout. In addition, the GI50 in test [13], in [14], in test [15], in [16], in test [17] and in [18] was > 100 µM (inactive) in each case. Besides, the GI50 in [19] was > 100 µM (inactive).
On to `CCO[C@]12CCC[C@H]1[C@@H]1C(=O)c3ccccc3C(=O)C1=C(C)O2`, for which the GI50 was 22.3 µM (inactive) in [1]; 22 µM (inactive) in test [2]; 81.1 µM (inactive) in test [3]; > 100 µM (inactive) in test [4]; > 100 µM (inactive) in test [5]; 36.8 µM (inactive) in test [6]. Besides, the GI50 in test [7] is 20.8 µM (inactive); in test [8], 17 µM (inactive); in test [9], 19.5 µM (inactive); in test [10], 29.4 µM (inactive); in [11] it was 34.3 µM (inactive); in [12], 33.5 µM (inactive). The GI50 in test [13] is > 100 µM (inactive); in test [14] it was > 100 µM (inactive); in test [15], > 100 µM (inactive); in test [16] it was 55.8 µM (inactive); in [17] it was > 100 µM (inactive); in test [18] it was 33.7 µM (inactive). Further, in test [19], the GI50 was 40.1 µM (inactive).
On to `Cc1ccc2c(c1)nc(N)n[n+]2[O-]`, for which the GI50 in test [1], in test [2], in test [3], in test [4], in test [5] and in test [6] was > 100 µM (inactive) in each case. The GI50 in test [7], in test [8], in test [9], in [10], in test [11] and in test [12] was > 100 µM (inactive) throughout. For the same compound, the GI50 in test [13], in test [14], in test [15], in test [16], in test [17] and in test [18] was > 100 µM (inactive) in each case. Further, in [19], the GI50 was > 100 µM (inactive).
As for `OCCCCn1cc(Cn2ncc3c(SCc4ccccc4)ncnc32)nn1`, the GI50 is 27.7 µM (inactive) in [1]; 28.2 µM (inactive) in test [2]; 28.7 µM (inactive) in test [3]; > 100 µM (inactive) in [4]; 40.5 µM (inactive) in test [5]; 67.6 µM (inactive) in [6]. For the same compound, the GI50 was 72.4 µM (inactive) in test [7]; 57 µM (inactive) in test [8]; 15.7 µM (inactive) in [9]; 43.2 µM (inactive) in test [10]; 29.9 µM (inactive) in test [11]; 45.5 µM (inactive) in [12]. For the same compound, the GI50 is 63 µM (inactive) in test [13]; 61.2 µM (inactive) in [14]; 31.1 µM (inactive) in test [15]; 31 µM (inactive) in test [16]; 76.7 µM (inactive) in test [17]; 21.7 µM (inactive) in test [18]. Further, the GI50 in [19] was 58.3 µM (inactive).
On to `O=CCCCCCOCc1ccccc1`, for which the GI50 in test [1] was 39.6 µM (inactive); in [2], > 74 µM (inactive); in [3], 30.6 µM (inactive); in [4] it was > 100 µM (inactive); in [5] it was > 100 µM (inactive); in test [6], 36.9 µM (inactive). Moreover, the GI50 in [7] was 18.3 µM (inactive); in [8], 54.8 µM (inactive); in test [9], > 100 µM (inactive); in test [10], > 100 µM (inactive); in test [11], > 100 µM (inactive); in test [12], 28 µM (inactive). Besides, the GI50 in [13] was 17.7 µM (inactive); in [14], > 100 µM (inactive); in test [15], > 87.1 µM (inactive); in test [16] it was > 45.8 µM (inactive); in [17], > 100 µM (inactive); in [18], 25.4 µM (inactive). Besides, the GI50 in test [19] is > 69.8 µM (inactive).
Take `CN(C(=O)C12C3(C(=O)O)C4C5(C(=O)O)C3C1(C(=O)O)C5C42C(=O)O)C(C)(C)C` (stereo not given): the GI50 in [1], in [2], in test [3], in test [4], in test [5] and in test [6] was > 100 µM (inactive) each time. For the same compound, the GI50 in test [7], in [8], in test [9], in test [10], in test [11] and in [12] was > 100 µM (inactive) each time. The GI50 in [13], in test [14], in test [15], in test [16], in test [17] and in [18] was > 100 µM (inactive) throughout. For the same compound, the GI50 in test [19] is > 100 µM (inactive).
For the compound `CC1OC(OC2C(O[C@H]3CC[C@@]4(C)C(=CC[C@H]5[C@@H]6C[C@@H]7O[C@]8(CC[C@@H](C)CO8)[C@@H](C)[C@@H]7[C@@]6(C)CC[C@@H]54)C3)OC(CO)C(O)C2OC2OC(CO)C(O)C(O)C2O)C(O)C(O)C1O` (stereo not given in full), the GI50 in test [1] was > 100 µM (inactive); in test [2], 1.08 µM (active); in [3], 2.14 µM (inactive); in test [4], 13 µM (inactive); in test [5], 14.7 µM (inactive); in [6], 1.8 µM (inactive). Further, the GI50 in [7] was 2.38 µM (inactive); in [8] it was 2.19 µM (inactive); in [9] it was 1.72 µM (inactive); in test [10] it was 2.15 µM (inactive); in test [11], 2.35 µM (inactive); in [12], 14.3 µM (inactive). Moreover, the GI50 in test [13] was 8.75 µM (inactive); in [14], 1.87 µM (inactive); in [15], 1.94 µM (inactive); in test [16], 3.5 µM (inactive); in [17], 1.72 µM (inactive); in test [18], 2.04 µM (inactive). Further, the GI50 in test [19] is 3.19 µM (inactive).
For `COC(O)C(=O)c1c2c(cc3c1CCC3)CCC2` (stereo not given), the GI50 in test [1] is 66.2 µM (inactive); in [2], > 100 µM (inactive); in [3] it was > 100 µM (inactive); in test [4], > 100 µM (inactive); in test [5], > 100 µM (inactive); in test [6] it was > 100 µM (inactive). Also, the GI50 in test [7] is > 100 µM (inactive); in [8], > 100 µM (inactive); in [9], > 100 µM (inactive); in [10], > 100 µM (inactive); in test [11], > 100 µM (inactive); in [12], 55 µM (inactive). For the same compound, the GI50 in test [13], in test [14], in test [15], in test [16], in [17] and in test [18] was > 100 µM (inactive) each time. The GI50 in test [19] was > 100 µM (inactive).
`CC(N/N=C(\S)N1CCCCCC1)c1cccnn1` (stereo not given): the GI50 in test [1] was 0.132 µM (active); in test [2], 0.192 µM (active); in [3] it was 0.403 µM (active); in [4] it was 0.316 µM (active); in test [5] it was 0.483 µM (active); in [6] it was 0.294 µM (active). For the same compound, the GI50 in test [7] was 0.304 µM (active); in test [8], 0.258 µM (active); in test [9] it was 0.684 µM (active); in test [10], 0.194 µM (active); in test [11] it was 0.319 µM (active); in [12], 0.112 µM (active). Moreover, the GI50 is 0.484 µM (active) in [13]; 0.104 µM (active) in test [14]; 0.526 µM (active) in test [15]; 0.395 µM (active) in [16]; 1.27 µM (inactive) in [17]; 0.248 µM (active) in [18]. In addition, the GI50 in test [19] is 0.239 µM (active).
